Entries after “also recorded” stand apart in the source; their conditions may differ. Read-outs that look alike come from different tables or passages of the source.
How the values were obtained:
[1] = system: herpes simplex virus (HSV); assay: HSV infection of cells treated with MAOIs; qRT-PCR of HSV IE genes and IE proteins; assay type: cell-based, HSV-1 strain 17; conditions: HSV-infected cells, selected concentrations of drug; relative to DMSO treated cells
[2] = Cellular protein controls and cellular toxicity in MAOI-treated infected cells; assay type: cell-based
Text: (§1) For treatment with MAOIs, cells were pretreated with the indicated concentration of drug for 4-5 hrs prior to infection and maintained throughout infection. Pargyline (p-8013) and Tranylcypromine (p-8511) were obtained from Sigma (St. Louis, Mo.).

[3] = system: varicella zoster virus (VZV); assay: VZV infection of cells treated with MAOIs; qRT-PCR of IE62 mRNA and IE proteins; assay type: cell-based; conditions: VZV-infected cells, 4 hrs, increasing amounts of drug; relative to DMSO treated cells
Experimental: The methods of Example 1 were followed.
(§2) Cell infections: For HSV, cells were infected with 0.1 plaque forming units (PFU) of HSV per cell for 24 hrs in the presence of 2 mM Tranylcypromine (TCP) or control DMSO. The resulting viral yields were determined by titer of infected cell lysates on Vero cell monolayers. VZV infections were performed as in Example 3.

[4] = system: viral IE promoters (histone H3, H3K9 and H3K4 methylation); assay: Chromatin immunoprecipitation of viral IE promoters in MAOI-treated infected cells; assay type: cell-based; conditions: for nucleosomes bearing repressive marks on the viral IE promoters (histone H3 and H3K9 methylation): in the presence of drug
Experimental: Chromatin immunoprecipitations (ChIP) from extracts of control, HCF-1 depleted, and LSD1 depleted cells were done essentially as described (Narayanan et al., Proc. Natl. Acad. Sci. USA, 2007, 104, 10835-40). Recovered DNA was subjected to semi-quantitative PCR with dilutions of input DNA to insure linearity using PCR Supermix (Invitrogen, Carlsbad, Calif.) with the following conditions: 95° C. for 2 min followed by 20 cycles of 95° C. for 30 sec; 59° C. for 30 sec; 72° C. for 30 sec. The signal intensities of individual bands, resolved in ethidium bromide agarose gels, were calculated as a percentage of the intensity of the input extract after subtraction of the appropriate background antibody controls. Signal intensities of resolved bands were quantitated using a Kodak 4000MM Image Station.
Samples also were analyzed, in triplicate, by qPCR using ABI Sybr Green PCR Master Mix. For qPCR, samples were run on a ABI PRISM 7900HT with the following conditions: 95° C. for 10 min followed by 40 cycles of 95° C. for 15 sec; 57° C. for 15 sec; 72° C. for 30 sec. Results were analyzed using ABI SDS 2.3 software.
as §1

HSV ICP8 = assay: ICP8 immunofluorescence of explanted latently infected trigeminal ganglia; assay type: cell-based, Balb/c mice; conditions: for ganglia with ICP8 (+) neurons: explant 48 hrs in the presence of drug
Experimental: (§3) Latently infected mice and trigeminal ganglia: Balb/c mice were infected with 5×10^5 PFU HSV-1 (strain 17) per eye after corneal scarification. Latently infected mice were sacrificed 30 days post clearance of the primary infection and trigeminal ganglia were rapidly explanted into culture in the presence or absence of TCP or control (DMSO or acyclovir). Post explant incubation as indicated, the ganglia were homogenized and briefly sonicated. The reactivated viral yield of each ganglia was determined by titering the clarified supernatant on Vero cells.
Immunofluorescence statistical analysis: Trigeminal ganglia (16 DMSO/Control, 15 acyclovir, and 15 TCP) were fixed at 48 hours post explants. Serial sections representing the entire ganglia were stained and scored by confocal microscopy.
Therefore, latently infected ganglia were explanted in the presence of DMSO (control vector), acyclovir (to prevent viral DNA replication and spread), or TCP for 48 hrs. Ganglia were fixed and sections were probed with antibodies to HSV ICP8, the viral-encoded single stranded binding protein.

[5] = system: HSV IE mRNA (ICP27, ICP4); assay: Nested RT-PCR of viral IE mRNAs in explanted latently infected ganglia; assay type: cell-based, Balb/c mice; conditions: paired ganglia explanted 12 hrs; 100 μM acyclovir or 2 mM TCP
Experimental: For the detection of viral IE and cellular mRNAs post explant, 8 ganglia from HSV latently infected or mock infected Balb/c mice were explanted in the presence of DMSO, 100 μM acyclovir, or 2 mM TCP for the indicated times. cDNAs were prepared from total RNA and amplified by qPCR (cellular Sp1 and TBP controls) or nested PCR (viral IE). Primer sets for the nested RT-PCR were as follows:
cDNA samples were normalized to one another according to the level of cellular control Sp1 mRNA. To insure linearity and sensitivity of nested PCR reactions, samples were amplified in parallel with dilutions of cDNA prepared from 3T3 cells infected with HSV at 6.4×10^−5 pfu/cell for 4 hrs. PCR products were resolved in agarose gels and quantitated using Kodak Image Station 4000MM Digital Imaging System.

HSV-1 (strain 17) = assay: HSV reactivation: viral yield from explanted trigeminal ganglia of latently infected mice; assay type: cell-based, Balb/c mice
Experimental: as §3
Statistical analyses: Statistical comparisons were made using Wilcoxon signed rank test (paired ganglia) with a statistical significance of <0.05; Kruskal-Wallis test with post hoc Dunn's multiple comparison test (drug titration and reversal) with a statistical significance of <0.025; Mann-Whitney U test with Dunn's post hoc adjustment (non-paired ganglia time course) with a statistical significance of <0.025; or Fischer's Exact Test with a statistical significance of <0.05. Analyses were made using Prism (V5.0a) and are expressed as the mean+/−s.e.m.
Non-paired ganglia time course statistic analysis: Comparisons were made between control (DMSO) and TCP treated ganglia on day 2 and day 4 post explant. Each comparison utilized a one-sided Mann-Whitney U test followed by application of the Dunn's post hoc adjustment to the p-values. Significant differences were found between DMSO and TCP on day 2 (p=0.0043) and on day 4 (p=0.0011). Both of these differences are still significant after applying the Dunn's adjustment as both are less than the alpha level (α=0.025). The Mann-Whitney tests used an exact p-value for small sample sizes. n=6 for each sample set.
Paired ganglia statistical analysis: Each data point was the result of a single ganglia divided and treated in the presence and absence of TCP. Therefore, a Wilcoxon signed rank test was used to assess differences between each treated and untreated sample. The significant difference was p=0.0002. This test used an exact p-value for small sample sizes with an α level of 0.05. n=16 for each sample set.
TCP titration statistical analysis: To determine at what concentration TCP that would produce a significant reduction in viral load, a Kruskal-Wallis (K-W) test with Dunn's post hoc comparison was used. The K-W test was appropriate due to the comparison of five samples of data that are not normally distributed. Significant differences were found between the five groups (p=0.0007, K-W=19.39). […] No significant difference was found between 1.0 and 1.5 or 1.5 and 2.0 mM data sets. n=5 for control, 0.5, 1.0, and 2.0 mM; n=6 for […].
TCP reversal statistical analysis: Viral yields from ganglia treated without TCP for 2 days, treated with TCP for 2 days, or treated with TCP for 2 days followed by incubation in the absence of drug for 3 days were compared using the K-W test followed by Dunn's post hoc comparisons. The K-W test was appropriate due to the comparison of three samples of data that are not nominally distributed. Significant differences were found between the groups ([…], K-W=10.3).

Adenovirus Type 5 = conditions: HeLa cells, 2 mM, 5 hours prior to infection, 2 or 4 hours infection
Experimental: Viral infection and treatment with TCP: HeLa cells (2×10^6) were treated with control DMSO (D) or 2 mM Tranylcypromine (T) for 5 hours prior to infection with various amounts of Adenovirus Type 5 (1.2×10^8, 2.3×10^8, and 4.5×10^8 NAS IU) for 2 or 4 hours. Equal amounts of infected cell lysates were resolved by SDS-PAGE and Western blotted with anti-E1A, anti-LSD1, and anti-β tubulin antibodies. HEK293 and uninfected HeLa cell lysates represented E1A positive and negative controls.
HeLa cells (2×10^6) were treated with control DMSO (D) or various concentrations of Tranylcypromine (TCP) for 5 hours prior to infection with 2.3×10^9 NAS IU of adenovirus Type 5 for 2 hours. Equal amounts of infected cell lysates were resolved by SDS-PAGE and Western blotted with anti-E1A, anti-β Tubulin, and anti-TBP antibodies.

HSV = conditions: 0.1 PFU HSV per cell, 24 hrs, 2 mM TCP vs DMSO
Experimental: as §2

## C#CCN(C)Cc1ccccc1 [Pargyline]
[1]
  viral mRNA (HSV IE genes) and IE proteins: dose dependent decrease
[2]
  cellular toxicity: no significant cellular toxicity
[3]
  viral mRNA (IE62) and IE proteins: dose dependent decrease
[4]
  nucleosomes bearing repressive marks on the viral IE promoters (histone H3 and H3K9 methylation): accumulated

## Nc1nc2c(ncn2COCCO)c(=O)[nH]1 [acyclovir]
HSV ICP8; 48 hours post explant
  odds of viral reactivation, DMSO treated vs acyclovir treated samples (Odds Ratio): 1.4444 times higher
HSV ICP8
  ganglia with ICP8 (+) neurons: 9 of 12
[5]
  ICP27 mRNA level: readily detected

## N[C@@H]1C[C@H]1c1ccccc1 (racemic) [TCP, Tranylcypromine]
HSV ICP8; 48 hours post explant
  odds of viral reactivation, DMSO treated vs TCP treated samples (Odds Ratio): 60.6667 times higher
  odds of viral reactivation, acyclovir treated vs TCP treated samples (Odds Ratio): 42.0000 times higher
HSV ICP8
  ganglia with ICP8 (+) neurons: 1 of 15
HSV-1 (strain 17); 0.5 mM TCP, 2 days explant, Dunn's post hoc
  reduction in viral load vs control (DMSO): did not
HSV-1 (strain 17); 1.0 mM TCP, 2 days explant, Dunn's post hoc p<0.05
  reduction in viral load vs control (DMSO): showed significant differences
HSV-1 (strain 17); 1.5 mM TCP, 2 days explant, Dunn's post hoc p<0.05
  reduction in viral load vs control (DMSO): showed significant differences
HSV-1 (strain 17); 2 mM TCP 2 days, then 3 days in the absence of drug
  viral reactivation following drug removal (TCP-R): high level of viral reactivation; also recorded: HSV reactivation
HSV-1 (strain 17); 2.0 mM TCP, 2 days explant, Dunn's post hoc p<0.05
  reduction in viral load vs control (DMSO): showed significant differences
HSV-1 (strain 17); each half of a ganglia explanted with or without 2 mM TCP, 2 days, p=0.0002, n=16
  viral reactivation (viral yield), paired ganglia: inhibition of viral reactivation; also recorded: decrease in viral yield
HSV-1 (strain 17); explant 2 or 4 days, 2 mM TCP vs DMSO, p=0.0043 (day 2), 0.0011 (day 4), n=6
  reactivation of HSV-1 (viral yield), non-paired ganglia time course: significantly reduced; also recorded: decrease in viral yield
HSV-1 (strain 17); titration of TCP, 2 days explant
  HSV reactivation at various (lower) levels of TCP: lower levels also were effective; also recorded: inhibition of HSV reactivation
[1]
  viral mRNA (HSV IE genes) and IE proteins: dose dependent decrease
Adenovirus Type 5
  expression of the adenovirus IE protein E1A: inhibits the expression
[2]; VZV and HSV infected cells treated with inhibitor
  cellular toxicity: no significant cellular toxicity
HSV
  reduction of viral yields: ~1000 fold
[5]
  ICP27 mRNA level: not significantly above that of background controls
[3]
  viral mRNA (IE62) and IE proteins: dose dependent decrease
[4]; in the presence of TCP
  histone H3 and H3K9 trimethylation on viral IE promoters: substantial increase
  level of H3K4 trimethylation on viral IE promoters: did not significantly change
[4]
  nucleosomes bearing repressive marks on the viral IE promoters (histone H3 and H3K9 methylation): accumulated
